Our source for the IC50 and EC50 values is US10030016B2 (Sunesis Pharmaceuticals, Inc., priority 2009, dated 2018).

In one test the target is PDK1 (Homo sapiens (Human), UniProt O15530). In words: PDK1 kinase assay (coupled PDK1/AKT/FAM-crosstide assay, IMAP fluorescence polarization). The format is biochemical. In outline:
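GST-tagged human PDK1 (aa 51-359, 0.75 nM) from insect cells activated unphosphorylated GST-AKT2 (aa 140-467–PIFtide fusion, 10 nM), which phosphorylated 100 nM FAM-crosstide; 40 μM ATP, pH 7.2 Tris/MgCl2, 30 min at 25° C. IMAP fluorescence polarization read-out; ΔmP versus compound concentration fitted with a 4-parameter curve.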
A general note: Polarisation of emitted light reports the rotation of a fluorescent probe.

The subject of test [1] is phospho-akt (Thr308) in PC-3 cells. As to the kind of experiment: Inhibition of phospho-akt (Thr308) in PC-3 cells, MSD phospho-akt 308 ELISA kit. The format is cell-based. The following applies: 2 hours, no serum, read-out: EC50. The gist of the method: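 Read-out is MSD electrochemiluminescence of Akt phosphorylated at Thr308 in lysates of PC-3 cells treated 2 h with compound in serum-free medium. Wortmannin at 5 μM defined the low control and DMSO the high control.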
In general terms: In an ELISA, binding on a coated surface is turned into a signal by an enzyme label.

Where [2] appears, read: inhibition of phospo-PDK1 in vitro.
[3] abbreviates: Homo sapiens, inhibition of P308 Akt in PC-3 cells, MSD.
Where [4] appears, read: Homo sapiens, inhibition of P308 Akt in PC-3 cells using MSD.

pEC50, pIC50: −log10 of the molar value. Where two headings read alike, the source gives them in different places.

Sequence of PDK1 (O15530 51-359): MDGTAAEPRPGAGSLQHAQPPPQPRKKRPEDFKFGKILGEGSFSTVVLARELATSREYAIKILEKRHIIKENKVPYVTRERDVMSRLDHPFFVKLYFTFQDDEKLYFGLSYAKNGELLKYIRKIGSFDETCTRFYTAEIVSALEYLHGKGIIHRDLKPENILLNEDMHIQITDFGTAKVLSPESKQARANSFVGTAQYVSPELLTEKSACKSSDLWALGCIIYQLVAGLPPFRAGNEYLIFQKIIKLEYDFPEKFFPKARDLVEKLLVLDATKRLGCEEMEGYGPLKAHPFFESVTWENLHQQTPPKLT

For the compound `C[C@H](NC(=O)c1cc(C#N)cnc1NC/C=C/c1ccc2c(c1)NC(=O)C2)c1ccc(F)cc1` [Example 15.3, (S,E)-5-cyano-N-(1-(4-fluorophenyl)ethyl)-2-(3-(2-oxoindolin-6-yl)allylamino)nicotinamide], the pIC50 (in general, −log10 of the IC50, conventionally taken in molar units) against PDK1 (setting [2]) was < 5.30. In addition, the negative-log EC50 (pEC50) (as a rule, −log10 of the EC50, conventionally taken in molar units) in test [1] (setting [3]) was < 5.00.

`CC(C)Oc1cc(CNc2ncccc2C(=O)NCc2ccc(F)c(F)c2)cc(-c2c[nH]c3ncncc23)c1` [Example 5.8, N-(3,4-difluorobenzyl)-2-{[3-(propan-2-yloxy)-5-(7H-pyrrolo[2,3-d]pyrimidin-5-yl)benzyl]amino}pyridine-3-carboxamide]: the pIC50 on PDK1 (setting [2]) was > 7.00. In test [1] (setting [3]), the negative logarithm of the EC50 (pEC50) is 5.00 to 6.00.

Consider `Nc1n[nH]c2ncc(-c3ccc(CNc4ncc(C(F)(F)F)cc4C(=O)Nc4ccc(F)nc4)cc3)cc12` [Example 267, 2-(4-(3-amino-1H-pyrazolo [3,4-b]pyridin-5-yl)benzylamino)-N-(6-fluoropyridin-3-yl)-5-(trifluoromethyl) nicotinamide], for which the pIC50 against PDK1 (inhibition of PDK1 in vitro) was > 7.00. In test [1] (setting [4]), the pEC50 is > 6.00.

Turning to `COCCn1cc(-c2ccc(CNc3ncc(C(F)(F)F)cc3C(=O)Nc3ccc(F)cc3)cc2)c2c(N)ncnc21` [Example 431], the pIC50 on PDK1 (inhibition of PDK1 in vitro) is > 7.00. Also, in test [1] (setting [4]), the negative logarithm of the EC50 (pEC50) was 5.00 to 6.00.

In the case of `C[C@H](NC(=O)c1cc(C#N)cnc1NCc1ccc(-c2cnc(N)c(C(=O)N(C)C)n2)cc1)c1ccc(F)cc1` [Example 210, (S)-3-amino-6-(4-((5-cyano-3-(1-(4-fluorophenyl)ethylcarbamoyl)pyridin-2-ylamino)methyl)phenyl)-N,N-dimethylpyrazine-2-carboxamide], the pIC50 at PDK1 (inhibition of PDK1 in vitro) is > 7.00. The pEC50 in test [1] (setting [4]) was 5.00 to 6.00.

Turning to `Nc1ncnc2ccc(-c3ccc(CNc4ncc(S(=O)(=O)N5CCCCC5)cc4C(=O)NCc4ccc(F)c(F)c4)s3)cc12` [Example 8.6.8, 2-(((5-(4-aminoquinazolin-6-yl)thiophen-2-yl)methyl)amino)-N-(3,4-difluorobenzyl)-5-(piperidin-1-ylsulfonyl) nicotinamide], the pIC50 against PDK1 (setting [2]) is 6.00 to 7.00. For the same compound, the negative logarithm of the EC50 (pEC50) in test [1] (setting [3]) is < 5.00.

In the case of `C[C@H](NC(=O)c1cc(C#N)cnc1NCc1ccc(-c2cnc(N)c(OC(F)F)c2)cc1)c1ccc(F)cc1` [Example 134, (S)-2-(4-(6-amino-5-(difluoromethoxy)pyridin-3-yl)benzylamino)-5-cyano-N-(1-(4-fluorophenyl)ethyl)nicotinamide], the pIC50 on PDK1 (inhibition of PDK1 in vitro) was > 7.00. Further, the pEC50 in test [1] (setting [4]) was > 6.00.

Take `C[C@H](NC(=O)c1nc(C#N)cnc1NCc1ccc(-c2cnc3[nH]ncc3c2)cc1)c1ccc(F)cc1` [Example 389, 6-Cyano-3-[4-(1H-pyrazolo [3,4-b]pyridin-5-yl)-benzylamino]-pyrazine-2-carboxylic acid [(S)-1-(4-fluoro-phenyl)-ethyl]-amide]: at PDK1 (inhibition of PDK1 in vitro), the negative logarithm of the IC50 (pIC50) was > 7.00. In addition, the negative logarithm of the EC50 (pEC50) in test [1] (setting [4]) is > 6.00.

For `C[C@H](NC(=O)c1cc(C#N)cnc1N[C@H](C)c1ccc(-c2c[nH]c3ncnc(N)c23)cc1)c1ccc(F)cc1` [Example 432, 2-{(R)-1-[4-(4-Amino-7H-pyrrolo[2,3-d]pyrimidin-5-yl)-phenyl]-ethylamino}-5-cyano-N-[(S)-1-(4-fluoro-phenyl)-ethyl]-nicotinamide], on PDK1 (inhibition of PDK1 in vitro), the negative logarithm of the IC50 (pIC50) was > 7.00. In test [1] (setting [4]), the negative logarithm of the EC50 (pEC50) was > 6.00.

As to `CN(Cc1ccc(F)c(F)c1)C(=O)c1nc(C#N)cnc1NCc1ccc(-c2cnc3[nH]nc(N)c3c2)cc1` [Example 413, 3-(4-(3-amino-1H-pyrazolo[3,4-b]pyridin-5-yl)benzylamino)-6-cyano-N-(3,4-difluorobenzyl)-N-methylpyrazine-2-carboxamide], the pIC50 against PDK1 (inhibition of PDK1 in vitro) was > 7.00. Further, in test [1] (setting [4]), the negative-log EC50 (pEC50) was > 6.00.

In turn, `COc1ccc([C@H](COc2ccc3[nH]c(=O)[nH]c3c2)Nc2ncccc2C(=O)N[C@@H](C)c2ccc(F)c(F)c2)cc1` [Example 16.8, N-((S)-1-(3,4-difluorophenyl)ethyl)-2-(((R)-1-(4-methoxyphenyl)-2-(2-oxo-2,3-dihydro-1H-benzo[d]imidazol-5-yloxy)ethyl)amino)nicotinamide] showed a pIC50 against PDK1 (setting [2]) of 5.30 to 6.00. Also, the negative-log EC50 (pEC50) in test [1] (Homo sapiens, PC-3, 2 h, inhibition of P308 Akt in PC-3 cells, MSD) is < 5.00.

Take `Cn1cc(-c2ccc(CNc3ncc(C#N)nc3C(=O)NCc3cncc(F)c3)cc2)c2c(N)ncnc21` [Example 28, 3-(4-(4-amino-7-methyl-7H-pyrrolo[2,3-d]pyrimidin-5-yl)benzylamino)-6-cyano-N-((5-fluoropyridin-3-yl)methyl)pyrazine-2-carboxamide]: the pIC50 at PDK1 (setting [2]) is > 7.00. Further, in test [1] (setting [3]), the pEC50 is > 6.00.

Consider `CC(C)c1cnc(NCc2ccc(-c3ccc4ncnc(N)c4c3)s2)c(C(=O)NCc2ccc(F)c(F)c2)n1` [Ex. 10.4, 3-({[5-(4-aminoquinazolin-6-yl)thiophen-2-yl]methyl}amino)-N-(3,4-difluorobenzyl)-6-(propan-2-yl)pyrazine-2-carboxamide], for which the negative logarithm of the IC50 (pIC50) on PDK1 (setting [2]) is 6.00 to 7.00. Further, the negative logarithm of the EC50 (pEC50) in test [1] (setting [3]) is < 5.00.

Turning to `Cn1nc(Nc2ncccc2C(=O)NCc2ccc(F)c(F)c2)c2cc(-c3ccc4ncnc(N)c4c3)ccc21` [Example 14.2, 2-(5-(4-aminoquinazolin-6-yl)-1-methyl-1H-indazol-3-ylamino)-N-(3,4-difluorobenzyl)-nicotinamide], on PDK1 (setting [2]), the negative-log IC50 (pIC50) was > 7.00. Moreover, in test [1] (setting [3]), the pEC50 was < 5.00.

Turning to `C[C@H](NC(=O)c1cc(S(=O)(=O)N(C)C)cnc1NCc1ccc(-c2ccc3ncnc(N)c3c2)s1)c1ccc(F)c(F)c1` [Example 8.7.6, 2-({[5-(4-aminoquinazolin-6-yl)thiophen-2-yl]methyl}amino)-N-[(1S)-1-(3,4-difluorophenyl)ethyl]-5-(dimethylsulfamoyl) pyridine-3-carboxamide], on PDK1 (setting [2]), the pIC50 was > 7.00. Moreover, the negative logarithm of the EC50 (pEC50) in test [1] (inhibition of P308 Akt in PC-3 cells, MSD) is > 6.00.

Turning to `COCCCn1cc(-c2ccc(CNc3ncc(C#N)nc3C(=O)N[C@@H](C)c3ccc(F)c(F)c3)cc2)c2c(N)ncnc21` [Example 317, (S)-3-(4-(4-amino-7-(3-methoxypropyl)-7H-pyrrolo[2,3-d]pyrimidin-5-yl)benzylamino)-6-cyano-N-(1-(3,4-difluoro-phenyl)ethyl)pyrazine-2-carboxamide], the pIC50 on PDK1 (inhibition of PDK1 in vitro) was > 7.00. Besides, the pEC50 in test [1] (setting [4]) is > 6.00.

For the compound `Nc1n[nH]c2ncc(-c3ccc(CNc4ncc(C(F)(F)F)cc4C(=O)NC4CCCC4)cc3)cc12` [Example 302, 2-(4-(3-amino-1H-pyrazolo [3,4-b]pyridin-5-yl)benzylamino)-N-cyclopentyl-5-(trifluoromethyl)nicotinamide], the pIC50 at PDK1 (inhibition of PDK1 in vitro) is > 7.00. Moreover, the pEC50 in test [1] (setting [4]) is 5.00 to 6.00.

Regarding `C[C@H](NC(=O)c1cc(C#N)cnc1NCc1ccc(-c2cnc(N)c(C(=O)NCCCN(C)C)n2)cc1)c1ccc(F)cc1` [Example 211], the pIC50 against PDK1 (inhibition of PDK1 in vitro) was > 7.00. Moreover, the pEC50 in test [1] (setting [4]) was 5.00 to 6.00.

Turning to `Nc1n[nH]c2ncc(-c3ccc(CNc4ncc(C(F)(F)F)cc4C(=O)NCc4ccc(Cl)cc4)cc3)cc12` [Example 279, 2-(4-(3-amino-1H-pyrazolo [3,4-b]pyridin-5-yl)benzylamino)-N-(4-chlorobenzyl)-5-(trifluoromethyl)nicotinamide], on PDK1 (inhibition of PDK1 in vitro), the pIC50 is > 7.00. The pEC50 in test [1] (setting [4]) was > 6.00.

Consider `Nc1cnc(-c2ccc(CNc3ncc(C(F)(F)F)cc3C(=O)NCc3ccc(F)cc3)cc2)cn1` [Example 383, 2-(4-(5-aminopyrazin-2-yl)benzylamino)-N-(4-fluorobenzyl)-5-(trifluoromethyl)nicotinamide], for which the negative-log IC50 (pIC50) against PDK1 (inhibition of PDK1 in vitro) is > 7.00. Also, the pEC50 in test [1] (setting [4]) was > 6.00.

For the compound `CC(C)(N)COc1nc(-c2ccc(CNc3ncc(C(F)(F)F)cc3C(=O)Nc3ccc(F)cc3)cc2)cnc1N` [Example 200, 2-{4-[5-Amino-6-(2-amino-2-methyl-propoxy)-pyrazin-2-yl]-benzylamino}-N-(4-fluoro-phenyl)-5-trifluoromethyl-nicotinamide], the pIC50 against PDK1 (inhibition of PDK1 in vitro) was > 7.00. In addition, the negative-log EC50 (pEC50) in test [1] (setting [4]) was 5.00 to 6.00.

`Nc1ncnc2ccc(-c3ncc(CNc4ncccc4C(=O)NCc4ccc(F)c(F)c4)s3)cc12` [Ex. 6.6, 2-({[2-(4-aminoquinazolin-6-yl)-1,3-thiazol-5-yl]methyl}amino)-N-(3,4-difluoro-benzyl) pyridine-3-carboxamide]: the negative logarithm of the IC50 (pIC50) at PDK1 (setting [2]) is > 7.00. For the same compound, the pEC50 in test [1] (setting [3]) is < 5.00.

On to `Nc1ncnc2c1c(-c1ccc(CNc3ncc(C(F)(F)F)cc3C(=O)NCc3ccc(F)c(F)c3)cc1)cn2CCCO` [Example 334, 2-(4-(4-amino-7-(3-hydroxypropyl)-7H-pyrrolo[2,3-d]pyrimidin-5-yl)-benzylamino)-N-(3,4-difluorobenzyl)-5-(trifluoromethyl)nicotinamide], for which the negative logarithm of the IC50 (pIC50) at PDK1 (inhibition of PDK1 in vitro) is > 7.00. Moreover, in test [1] (setting [4]), the pEC50 is > 6.00.

Turning to `O=C(NCc1ccc(F)c(F)c1)c1cccnc1NCc1csc(-c2c[nH]c3ncncc23)n1` [Ex. 6.13, N-(3,4-difluorobenzyl)-2-({[2-(7H-pyrrolo[2,3-d]pyrimidin-5-yl)-1,3-thiazol-4-yl]-methyl}amino) pyridine-3-carboxamide], on PDK1 (setting [2]), the negative-log IC50 (pIC50) was 6.00 to 7.00. Also, in test [1] (setting [3]), the pEC50 is < 5.00.

`Nc1n[nH]c2ncc(-c3ccc(CNc4ncc(C(F)(F)F)cc4C(=O)NCc4cscn4)cc3)cc12` [Example 273, 2-(4-(3-amino-1H-pyrazolo [3,4-b]pyridin-5-yl)benzylamino)-N-(thiazol-4-ylmethyl)-5-(trifluoromethyl) nicotinamide]: the pIC50 on PDK1 (inhibition of PDK1 in vitro) is > 7.00. For the same compound, in test [1] (setting [4]), the pEC50 was 5.00 to 6.00.
